Where two headings read alike, the source gives them in different places.
Experiments:
[1] = target: PI3Kγ (p110γ) Recombinant Human Protein (Homo sapiens (Human), UniProt P48736); assay: PI3K-γ Scintillation Proximity Assay; format: biochemical; settings: 2 μM ATP, 20 μM PIP2, 13 nM PI3Kγ
Text: PI3K-γ Scintillation Proximity Assay
(§1) [γ-^33]ATP (10 mCi/mL) and Wheat Germ Agglutinin (WGA) YSi SPA Scintillation Beads was purchased from Perkin-Elmer (Waltham, Mass.). Lipid kinase substrate, D-myo-Phosphatidylinositol 4,5-bisphosphate (PtdIns(4,5)P2)D (+)-sn-1,2-di-O-octanoylglyceryl, 3-O-phospho linked (PIP2), CAS 204858-53-7, was purchased from Echelon Biosciences (Salt Lake City, Utah). PI3Kγ (p110γ) Recombinant Human Protein was purchased from Life technology (Grand Island, N.Y.). ATP, MgCl2, DTT, EDTA, MOPS and CHAPS were purchased from SigmaAldrich (St. Louis, Mo.).
The kinase reaction was conducted in polystyrene 384-well Greiner Bio-one white plate from Thermo Fisher Scientific in a final volume of 25 μL. Inhibitors were first diluted serially in DMSO and added to the plate wells before the addition of other reaction components. The final concentration of DMSO in the assay was 2%. The PI3Kγ assay was carried out at room temperature in 20 mM MOPS, pH 6.7, 10 mM MgCl2, 5 mM DTT and CHAPS 0.03%. Reactions were initiated by the addition of ATP, the final reaction mixture consisted of 20 μM PIP2, 2 μM ATP, 0.5 μCi [γ-^33P] ATP, 13 nM PI3Kγ. […] After the plate sealing, plates were shaken overnight at room temperature and centrifuged at 1500 rpm for 10 min, the radioactivity of the product was determined by scintillation counting on Topcount (Perkin-Elmer). […]

[2] = target: PI3Kδ (p110δ/p85α) Recombinant Human Protein (Homo sapiens (Human), UniProt O00329); assay: PI3Kδ Scintillation Proximity Assay; format: biochemical; settings: 2 μM ATP, 20 μM PIP2, 3.4 nM PI3Kδ
PI3Kδ (p110δ/p85α) Recombinant Human Protein, sequence (O00329 whole entry): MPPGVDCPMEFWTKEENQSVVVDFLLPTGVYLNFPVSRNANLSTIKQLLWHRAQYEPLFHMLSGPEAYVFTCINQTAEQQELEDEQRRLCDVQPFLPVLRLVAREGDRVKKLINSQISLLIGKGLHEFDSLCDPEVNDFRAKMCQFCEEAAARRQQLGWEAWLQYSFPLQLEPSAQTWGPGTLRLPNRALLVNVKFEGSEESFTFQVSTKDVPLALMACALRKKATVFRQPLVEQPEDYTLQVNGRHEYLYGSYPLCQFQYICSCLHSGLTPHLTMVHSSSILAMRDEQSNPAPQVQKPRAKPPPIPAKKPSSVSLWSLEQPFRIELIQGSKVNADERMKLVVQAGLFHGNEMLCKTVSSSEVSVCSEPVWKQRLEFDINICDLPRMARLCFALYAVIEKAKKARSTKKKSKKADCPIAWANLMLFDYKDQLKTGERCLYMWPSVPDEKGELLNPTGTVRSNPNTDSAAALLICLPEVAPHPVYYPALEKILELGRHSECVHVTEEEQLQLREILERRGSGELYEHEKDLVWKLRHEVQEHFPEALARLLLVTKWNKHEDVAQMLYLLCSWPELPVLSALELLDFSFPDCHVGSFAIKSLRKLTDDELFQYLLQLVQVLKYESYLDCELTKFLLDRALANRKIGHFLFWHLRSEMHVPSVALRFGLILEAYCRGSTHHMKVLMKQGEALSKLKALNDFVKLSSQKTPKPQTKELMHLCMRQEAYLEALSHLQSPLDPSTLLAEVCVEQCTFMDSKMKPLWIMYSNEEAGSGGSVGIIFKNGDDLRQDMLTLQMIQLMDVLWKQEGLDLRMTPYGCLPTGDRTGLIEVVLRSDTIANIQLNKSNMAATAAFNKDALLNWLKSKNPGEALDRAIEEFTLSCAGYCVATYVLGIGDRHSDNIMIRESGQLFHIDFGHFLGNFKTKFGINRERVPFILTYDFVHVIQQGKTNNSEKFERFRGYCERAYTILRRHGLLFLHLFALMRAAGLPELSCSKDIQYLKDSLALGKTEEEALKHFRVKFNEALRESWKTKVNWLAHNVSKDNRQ
PI3Kδ (p110δ/p85α) Recombinant Human Protein, sequence (P27986 whole entry partner): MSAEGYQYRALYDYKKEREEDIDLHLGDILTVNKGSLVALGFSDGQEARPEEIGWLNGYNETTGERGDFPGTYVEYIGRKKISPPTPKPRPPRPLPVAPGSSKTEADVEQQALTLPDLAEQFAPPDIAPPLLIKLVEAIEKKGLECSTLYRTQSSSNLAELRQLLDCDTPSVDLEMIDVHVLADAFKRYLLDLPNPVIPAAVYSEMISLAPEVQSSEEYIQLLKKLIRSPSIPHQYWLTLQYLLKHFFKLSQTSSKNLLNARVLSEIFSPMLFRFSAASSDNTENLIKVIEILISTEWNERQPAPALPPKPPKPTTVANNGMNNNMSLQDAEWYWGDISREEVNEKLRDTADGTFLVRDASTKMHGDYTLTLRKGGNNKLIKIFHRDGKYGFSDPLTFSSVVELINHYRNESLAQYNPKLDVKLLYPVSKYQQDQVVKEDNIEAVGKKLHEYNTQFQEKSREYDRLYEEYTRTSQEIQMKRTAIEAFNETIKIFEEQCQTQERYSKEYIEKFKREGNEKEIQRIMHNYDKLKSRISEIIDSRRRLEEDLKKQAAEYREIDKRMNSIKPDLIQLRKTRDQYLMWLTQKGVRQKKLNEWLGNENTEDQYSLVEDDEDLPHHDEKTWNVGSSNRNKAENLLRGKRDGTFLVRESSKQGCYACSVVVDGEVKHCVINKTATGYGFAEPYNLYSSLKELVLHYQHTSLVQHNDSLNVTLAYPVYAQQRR
Text: PI3Kδ Scintillation Proximity Assay
as §1, with “[γ-^33P]ATP” for “[γ-^33]ATP”, “PI3Kδ (p110δ/p85α)” for “PI3Kγ (p110γ)”, “Eurofins (St Charles, Mo.).” for “Life technology (Grand Island, N.Y.).”
The kinase reaction was conducted in polystyrene 384-well Greiner Bio-one white plate from Thermo Fisher Scientific in a final volume of 25 μL. Inhibitors were first diluted serially in DMSO and added to the plate wells before the addition of other reaction components. The final concentration of DMSO in the assay was 2%. The PI3Kδ assay was carried out at room temperature in 20 mM MOPS, pH 6.7, 10 mM MgCl2, 5 mM DTT and CHAPS 0.03%. Reactions were initiated by the addition of ATP, the final reaction mixture consisted of 20 μM PIP2, 2 μM ATP, 0.5 μCi [γ-^33P] ATP, 3.4 nM PI3Kδ. Reactions were incubated for 120 min and terminated by the addition of 40 μL SPA beads suspended in quench buffer: 163 mM potassium phosphate pH 7.8, 20% glycerol, 25 mM EDTA. The final concentration of SPA beads is 1.0 mg/mL. After the plate sealing, plates were shaken overnight at room temperature and centrifuged at 1500 rpm for 10 min, the radioactivity of the product was determined by scintillation counting on Topcount (PerkinElmer). IC50 determination was performed by fitting the curve of percent of the solvent control activity versus the log of the inhibitor concentration using the GraphPad Prism 6.0 software.

[3] = test system: Phosphorylated Ribosomal Protein S6 (RPS6) in THP-1 cells (PI3Kγ); assay: THP-1 RPS6 ELISA Assay; format: cell-based, Human; settings: 10 nM MCP-1 for 15 minutes, Phospho-RPS6 ELISA, read-out: PI3Kγ_THP1_RPS6_ELISA IC50
Protocol: To measure the Phosphorylated Ribosomal Protein S6 (RPS6) in cell lysates, THP-1 cells (Human Acute Monocytic Leukemia) are purchased from ATCC (Manassas, Va.) and maintained in RPMI with 10% FBS (Gibco/Life Technologies, Carlsbad, Calif.). For the assay, THP-1 cells are serum starved overnight in RPMI, then plated in RPMI (2×10^5 cells/well in 90 μL) into 96-well flat-bottom tissue culture treated plates (Corning, Corning, N.Y.), in the presence or absence of a concentration range of test compounds. Covered plates are incubated for 2 hours at 37° C., 5% CO2 then treated with or without 10 nM MCP-1(MYBioSource, San Diego, Calif.) for 15 minutes at 37° C., 5% CO2. Plates are centrifuged at 1600 RPM and supernatants are removed. Cells are lysed in Lysis Buffer (Cell Signaling, Danvers, Mass.) with Protease Inhibitor (Calbiochem/EMD, Germany), PMSF (Sigma, St Louis Mo.), HALTS (Thermo Fisher, Rockford, Ill.) for 30 min on wet ice. Cell lysates are frozen at −80° C. before testing. The lysates are tested in the Human/Mouse/Rat Phospho-RPS6 ELISA (R&D Systems, Inc. Minn, Minn.). The plate is measured using a microplate reader (SpectraMax M5—Molecular Devices, LLC Sunnyvale, Calif.) set to 450 nm with a wavelength correction of 540. IC50 determination is performed by fitting the curve of inhibitor percent inhibition versus the log of the inhibitor concentration using the GraphPad Prism 5.0 software.

PI3Kγ (p110γ) Recombinant Human Protein, sequence (P48736 whole entry): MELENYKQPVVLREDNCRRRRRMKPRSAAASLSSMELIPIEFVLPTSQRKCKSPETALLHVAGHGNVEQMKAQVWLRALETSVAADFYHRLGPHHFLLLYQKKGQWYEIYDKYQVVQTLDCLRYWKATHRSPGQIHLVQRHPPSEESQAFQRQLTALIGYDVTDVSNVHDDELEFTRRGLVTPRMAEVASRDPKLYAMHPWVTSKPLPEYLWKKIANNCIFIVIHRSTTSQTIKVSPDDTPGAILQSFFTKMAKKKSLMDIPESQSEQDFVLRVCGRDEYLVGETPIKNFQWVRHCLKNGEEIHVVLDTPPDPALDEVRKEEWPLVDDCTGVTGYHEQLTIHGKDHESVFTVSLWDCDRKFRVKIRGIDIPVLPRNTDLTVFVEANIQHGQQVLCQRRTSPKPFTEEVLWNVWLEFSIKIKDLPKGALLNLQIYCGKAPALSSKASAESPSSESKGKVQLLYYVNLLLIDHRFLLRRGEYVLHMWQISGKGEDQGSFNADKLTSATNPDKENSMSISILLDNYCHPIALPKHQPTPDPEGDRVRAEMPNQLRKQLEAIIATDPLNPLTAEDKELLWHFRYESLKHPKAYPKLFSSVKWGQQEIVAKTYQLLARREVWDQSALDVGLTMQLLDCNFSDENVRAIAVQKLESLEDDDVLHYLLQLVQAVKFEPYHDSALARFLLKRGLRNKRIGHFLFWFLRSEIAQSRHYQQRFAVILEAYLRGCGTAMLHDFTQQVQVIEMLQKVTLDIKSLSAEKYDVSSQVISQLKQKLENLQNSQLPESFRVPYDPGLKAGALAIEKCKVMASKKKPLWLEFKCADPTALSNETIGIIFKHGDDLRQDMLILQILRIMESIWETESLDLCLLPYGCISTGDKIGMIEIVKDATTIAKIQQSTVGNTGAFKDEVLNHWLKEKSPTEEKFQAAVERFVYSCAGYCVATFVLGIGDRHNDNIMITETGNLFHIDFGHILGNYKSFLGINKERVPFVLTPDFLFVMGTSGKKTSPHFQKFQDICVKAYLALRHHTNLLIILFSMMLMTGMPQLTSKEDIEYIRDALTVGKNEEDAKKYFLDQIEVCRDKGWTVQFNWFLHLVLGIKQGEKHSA

| IC50 [1] [nM] | IC50 [2] [nM] | IC50 ([3]; Homo sapiens, THP-1, 0.25 h) [nM] | IC50 [3] [nM] | Structure (SMILES) |
| --- | --- | --- | --- | --- |
| < 100 | < 100 |  |  | Cc1ccc(C(O)(C(N)=O)C(F)(F)F)cc1-c1cnc2c(N)nc(C(F)(F)F)cn12 (single isomer, unassigned) [Example 1, 2-(3-(8-Amino-6-(trifluoromethyl)imidazo[1,2-a]pyrazin-3-yl)-4-methylphenyl)-3,3,3-trifluoro-2-hydroxypropanamide] |
|  | < 500 | > 1000 |  | Cc1ccc(C(C)(O)C(F)(F)F)cc1-c1cnc2c(N)nc(C(=O)NCC(C)(C)O)cn12 (single isomer, unassigned) [Example 5, 8-Amino-N-(2-hydroxy-2-methylpropyl)-3-(2-methyl-5-(1,1,1-trifluoro-2-hydroxypropan-2-yl)phenyl)imidazo[1,2-a]pyrazine-6-carboxamide] |
|  | < 500 |  | < 500 | Cc1ccc(C(C)(O)C(F)(F)F)cc1-c1cnc2c(N)nc(C(=O)NCC(C)(C)O)cn12 (single isomer, unassigned) [Example 6, 8-Amino-N-(2-hydroxy-2-methylpropyl)-3-(2-methyl-5-(1,1,1-trifluoro-2-hydroxypropan-2-yl)phenyl)imidazo[1,2-a]pyrazine-6-carboxamide] |
|  |  | < 500 |  | [2H]C([2H])([2H])c1ccc(C(C)(O)C(F)(F)F)cc1-c1cnc2c(N)nc(C(=O)NCC(C)(C)O)cn12 (single isomer, unassigned) [Example 9, 8-Amino-N-(2-hydroxy-2-methylpropyl)-3-(2-(methyl-d3)-5-(1,1,1-trifluoro-2-hydroxypropan-2-yl)phenyl)imidazo[1,2-a]pyrazine-6-carboxamide] |

From patent US11186580B2, “Crystalline forms of a phosphoinositide 3-kinase (PI3K) inhibitor” (Incyte Corporation, priority 2018, dated 2021)
